The assay can be described thus: modulators of MEP2-GFP levels in yeast, dose response, S. cerevisiae, flow cytometry GFP, MLPCN hits (AID 2742).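 Note: GFP tag reports level of MEP2 protein as a downstream target of TOR signalling.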 Conditions: S. cerevisiae MEP2-GFP strain, flow cytometry fluorescence, 3 h; at 33 µM (top of the series).

The values below come from PubChem BioAssay AID2742 (NMMLSC, 2010).

Calls of active or inactive are those of the source.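 Rule for the calls: active = fitted half-maximal concentration for changing background-corrected GFP signal at or below a set limit; inactive = the rest.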

Regarding `COc1ccc([C@@]2(C(C)C)ON(c3ccccc3C(F)(F)F)C2=O)cc1`, the GFP fluorescence (kMESF), higher = increase was 3.06 kMESF (inactive).

With `C#CCOc1c(Br)cc(/C=C2/C(=O)ON=C2C)cc1OC`, the GFP fluorescence (kMESF), higher = increase is 3.64 kMESF (inactive).

Turning to `CN(C)C(=O)Oc1ccnc2cc(Cl)ccc12`, the GFP fluorescence (kMESF), higher = increase is 3.58 kMESF (inactive).

Turning to `O=C(c1ccccn1)c1conc1C(=O)c1ccc(Br)cc1`, the GFP fluorescence (kMESF), higher = increase is 2.83 kMESF (inactive).

For `CCOC(=O)c1c(C)oc2c1c(C(c1ccncc1)N1CCOCC1)c(O)c1ccccc12` (stereo not given), the GFP fluorescence (kMESF), higher = increase is 2.42 kMESF (inactive).

Turning to `CCN(CC)c1ccc2cc(-c3nc(-c4ccc(OC)cc4)cs3)c(=O)oc2c1`, the GFP fluorescence (kMESF), higher = increase was 0.72 kMESF (inactive).

In the case of `O=C1c2ccccc2C(=O)N1OS(=O)(=O)c1ccccc1`, the GFP fluorescence (kMESF), higher = increase was 3.26 kMESF (inactive).

Consider `Cc1c(N2C(=O)/C(=C\c3ccccc3O)SC2=S)c(=O)n(-c2ccccc2)n1C`, for which the GFP fluorescence (kMESF), higher = increase is 4.71 kMESF (inactive).

On to `CN1CCN(C(=O)c2cc(COc3c(F)cccc3F)on2)CC1c1ccccc1` (stereo not given), for which the GFP fluorescence (kMESF), higher = increase is 5.87 kMESF (inactive).

`Cc1ccc(/C=N/Nc2ncc(Cl)cc2Cl)s1`: the GFP fluorescence (kMESF), higher = increase is 4.77 kMESF (inactive).

Regarding `COC(=O)/C(=C/c1c[nH]c2ccccc12)[N+](=O)[O-]`, the GFP fluorescence (kMESF), higher = increase is 4.87 kMESF (inactive).

Take `CCCCc1ccc(/C=C2/C(=O)ON=C2c2ccccc2)s1`: the GFP fluorescence (kMESF), higher = increase is 2.26 kMESF (inactive).

On to `Fc1cccc(Nc2ncnc3c2cnn3-c2ccccc2)c1`, for which the GFP fluorescence (kMESF), higher = increase is 2.97 kMESF (inactive).

Consider `O=C(/C=C/c1ccc(F)cc1)NC(=S)NNC(=O)c1cnccn1`, for which the GFP fluorescence (kMESF), higher = increase was 4.9 kMESF (inactive).

Consider `CCc1nc2ccccc2c(=O)n1NC(=O)c1c(O)c2ccccc2n(CC)c1=O`, for which the GFP fluorescence (kMESF), higher = increase was 2.98 kMESF (inactive).

On to `COc1cccc2sc(Nc3nc(-c4ccccn4)cs3)nc12`, for which the GFP fluorescence (kMESF), higher = increase was 5.3 kMESF (inactive).

Regarding `Oc1ccc(COCc2ccccc2)c2cccnc12`, the GFP fluorescence (kMESF), higher = increase is 6.91 kMESF (inactive).

On to `O=C(/C=C/c1ccccn1)c1cc(Br)ccc1O`, for which the GFP fluorescence (kMESF), higher = increase is 4.38 kMESF (inactive).

Consider `O=C1c2sc3nc4ccccc4n3c2C(=O)N1c1ccccc1Cl`, for which the GFP fluorescence (kMESF), higher = increase was 3.06 kMESF (inactive).

Take `O=c1c2cc(Br)ccc2nc(-c2ccc([N+](=O)[O-])cc2)n1O`: the GFP fluorescence (kMESF), higher = increase is 3.87 kMESF (inactive).

Consider `O=C(Nc1ccc(N2CCOCC2)cc1)C1CCN(S(=O)(=O)c2ccc3c(c2)OCCO3)CC1`, for which the GFP fluorescence (kMESF), higher = increase is 2 kMESF (inactive).

For `Oc1c(I)cc(I)c2cccnc12`, the GFP fluorescence (kMESF), higher = increase was 4.67 kMESF (inactive).

In the case of `CCc1cccc2sc(N3CCN(C(=O)c4ccc([N+](=O)[O-])o4)CC3)nc12`, the GFP fluorescence (kMESF), higher = increase was 0.16 kMESF (inactive).

Turning to `CC(=O)N(\C=C/C=C/C=C1\Sc2ccccc2C1=O)c1ccccc1`, the GFP fluorescence (kMESF), higher = increase was 8.76 kMESF (inactive).

For `COc1ccc(CCNC2=C(Cl)C(=O)N(CCc3ccc(OC)c(OC)c3)C2=O)cc1OC`, the GFP fluorescence (kMESF), higher = increase is 2.9 kMESF (inactive).

Regarding `Cc1ccc(C2=NOC(=O)/C2=C\c2ccc(C)o2)cc1`, the GFP fluorescence (kMESF), higher = increase was 2.14 kMESF (inactive).

On to `COc1cc(/C=C2/C(=O)c3cccc([N+](=O)[O-])c3C2=O)c(Br)cc1O`, for which the GFP fluorescence (kMESF), higher = increase was 3.18 kMESF (inactive).

Turning to `O=C(Nc1nnc(-c2ccc(Cl)cc2)o1)c1ccccc1Br`, the GFP fluorescence (kMESF), higher = increase was 4.01 kMESF (inactive).

For `Cc1cc(C)c(C)c(S(=O)(=O)ON2C(=O)c3ccccc3C2=O)c1C`, the GFP fluorescence (kMESF), higher = increase was 4.23 kMESF (inactive).

As for `Cc1c(NC2=C(Cl)C(=O)N(c3ccccc3)C2=O)c(=O)n(-c2ccccc2)n1C`, the GFP fluorescence (kMESF), higher = increase is 2.91 kMESF (inactive).
